Results reported in US20240381868A1, “AGED AQUEOUS ANTIMICROBIAL COMPOSITION” (EVONIK CORPORATION, priority 2021, published 2024).

Legend:
[1] = Formation and stability of other peracids at room temperature (titration); format: physicochemical
Protocol: (§1) The concentrations of formed peracids and hydrogen peroxide were monitored by titration on an auto-titrator and by using Chemetrics test kits K7913F and K-5543.
Various other peracids were also prepared using corresponding organic acid precursors and hydrogen peroxide as described in the Example 1. Only the acids with low or no odor were used in the experiment. The solutions were kept at room temperature and periodically tested for the concentration of the components using an auto-titrator and standard titration methods.

[2] = Formation and stability of peroxycitric acid solutions at room temperature (titration); format: physicochemical; conditions: H2SO4 catalyst
Protocol: as §1
Two solutions were prepared using solid citric acid (47.9 wt %), 70 wt % hydrogen peroxide (21.8 wt %) and the rest DI water. 0.6 wt % Dequest 2010 stabilizer was added to both solutions. To the first solution (PCA-1), 4.9 wt % concentrated sulfuric acid was added as a catalyst. To the second solution (PCA-2), 0.6 wt % of sulfuric acid was added. Both solutions were kept at room temperature and periodically tested for the concentration of the components using an auto-titrator and standard titration methods.

Row | Compound | Peracid Concentration ([1]; 1 day) | Peracid Concentration ([1]; 3 days) | Peracid Concentration ([1]; 7 days) | Peracid Concentration ([1]; 14 days) | Peracid Concentration ([1]; 22 days) | max peracid concentration formed [1] | time for which peracid was stable [1] | Peracid Concentration ([1]; 78 days) | concentration of peracid formed [1] | time to reach maximum concentration of PCA [2]
1 | O=C(O)CCCC(=O)OO [Peroxyglutaric, perglutaric acid] | 0.993 mol/kg | 1.189 mol/kg | 1.081 mol/kg | 0.986 mol/kg | 0.919 mol/kg |  |  |  |  | 
2 | O=C(O)/C=C\C(=O)OO [Peroxymaleic, Permaleic acid] | 0.235 mol/kg |  | 0.386 mol/kg | 0.379 mol/kg | 0.348 mol/kg | 5.1 wt % | at least 78 days | 0.318 mol/kg |  | 
3 | O=C(O)CC(=O)OO [Peroxymalonic, permalonic acid] |  | 0.442 mol/kg | 0.200 mol/kg | 0.083 mol/kg |  |  |  |  |  | 
4 | O=C(O)C(=O)OO [Peroxyoxalic, peroxalic acid] |  | 0.047 mol/kg | 0.066 mol/kg | 0.057 mol/kg |  |  |  |  | < 1.0 wt % | 
5 | Percitric acid [PCA] |  |  |  |  |  |  |  |  |  | 3 to 7 days
